Experimental data as given in patent US20250367166A1, “NEXT GENERATION DIPROVOCIMS THAT ACTIVATE THE INNATE AND ADAPTIVE IMMUNE RESPONSE” (The Scripps Research Institute, priority 2022, published 2025).
Read-outs that look alike come from different tables or passages of the source.

Key:
TLR1/TLR2 [1] = molecular target: TLR1/TLR2 (Mus musculus, UniProt Q9EPQ1+Q9QUN7); experiment: TNF-α release from thioglycolate-elicited mouse peritoneal macrophages (ELISA); conditions: for Emax: 4 h, read-out: Efficacy (magnitude) of response versus diprovocim-1 (100%), mouse macrophages
Chain of TLR1/TLR2 (Mus musculus, UniProt Q9EPQ1+Q9QUN7) (Q9EPQ1 26-795): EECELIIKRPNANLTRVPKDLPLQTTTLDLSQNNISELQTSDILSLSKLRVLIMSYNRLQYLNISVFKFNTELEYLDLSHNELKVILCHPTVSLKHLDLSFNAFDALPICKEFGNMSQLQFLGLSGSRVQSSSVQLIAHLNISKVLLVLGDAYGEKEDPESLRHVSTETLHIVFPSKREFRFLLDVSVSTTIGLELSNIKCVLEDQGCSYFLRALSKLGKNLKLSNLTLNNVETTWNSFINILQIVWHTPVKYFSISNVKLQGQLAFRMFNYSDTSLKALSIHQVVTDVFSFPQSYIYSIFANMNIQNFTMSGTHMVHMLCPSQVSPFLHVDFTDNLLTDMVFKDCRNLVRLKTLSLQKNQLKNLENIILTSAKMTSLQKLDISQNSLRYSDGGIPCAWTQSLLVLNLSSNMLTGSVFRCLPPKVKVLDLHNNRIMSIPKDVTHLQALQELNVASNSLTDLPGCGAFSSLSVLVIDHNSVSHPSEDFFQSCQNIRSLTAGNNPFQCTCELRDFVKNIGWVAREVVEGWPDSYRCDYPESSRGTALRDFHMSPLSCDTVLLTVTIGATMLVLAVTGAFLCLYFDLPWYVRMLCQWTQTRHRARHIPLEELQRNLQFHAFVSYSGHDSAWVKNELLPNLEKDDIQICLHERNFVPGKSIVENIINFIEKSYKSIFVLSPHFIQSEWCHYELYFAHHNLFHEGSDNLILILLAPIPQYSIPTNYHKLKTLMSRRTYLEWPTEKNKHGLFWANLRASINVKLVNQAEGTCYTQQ
Chain of TLR1/TLR2 (Mus musculus, UniProt Q9EPQ1+Q9QUN7) (Q9QUN7 25-784): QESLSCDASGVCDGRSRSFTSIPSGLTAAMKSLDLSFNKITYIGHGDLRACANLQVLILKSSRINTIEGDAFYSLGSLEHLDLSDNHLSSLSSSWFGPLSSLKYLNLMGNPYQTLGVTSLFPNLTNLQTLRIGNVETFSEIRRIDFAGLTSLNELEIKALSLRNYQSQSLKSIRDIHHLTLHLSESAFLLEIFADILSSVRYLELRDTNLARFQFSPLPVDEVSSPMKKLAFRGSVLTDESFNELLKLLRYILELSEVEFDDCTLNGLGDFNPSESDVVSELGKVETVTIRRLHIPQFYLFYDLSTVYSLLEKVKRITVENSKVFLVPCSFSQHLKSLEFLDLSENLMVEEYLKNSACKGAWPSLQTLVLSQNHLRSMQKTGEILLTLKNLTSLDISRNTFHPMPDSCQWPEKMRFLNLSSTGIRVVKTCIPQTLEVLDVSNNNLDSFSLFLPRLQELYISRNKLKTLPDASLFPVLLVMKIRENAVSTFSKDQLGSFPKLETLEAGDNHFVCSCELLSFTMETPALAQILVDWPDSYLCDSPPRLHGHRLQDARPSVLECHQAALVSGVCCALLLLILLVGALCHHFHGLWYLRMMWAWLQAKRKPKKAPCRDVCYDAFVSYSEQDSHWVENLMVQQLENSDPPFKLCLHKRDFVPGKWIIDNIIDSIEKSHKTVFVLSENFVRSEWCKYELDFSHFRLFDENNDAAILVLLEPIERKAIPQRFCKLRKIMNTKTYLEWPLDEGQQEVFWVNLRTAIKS

TLR1/TLR2 [2] = molecular target: TLR1/TLR2 (Homo sapiens, UniProt O60603+Q15399); experiment: TNF-α release from PMA-differentiated human THP-1 cells (ELISA); conditions: for Emax: THP-1, 4 h, read-out: Efficacy (magnitude) of response versus diprovocim-1 (100%), THP-1;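 on all read-outs here: cells exposed to graded compound concentrations for 4 h, TNF-α quantified in supernatant, LPS as positive and DMSO as negative control, values are duplicate means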
Chain of TLR1/TLR2 (Homo sapiens, UniProt O60603+Q15399) (Q15399 25-786): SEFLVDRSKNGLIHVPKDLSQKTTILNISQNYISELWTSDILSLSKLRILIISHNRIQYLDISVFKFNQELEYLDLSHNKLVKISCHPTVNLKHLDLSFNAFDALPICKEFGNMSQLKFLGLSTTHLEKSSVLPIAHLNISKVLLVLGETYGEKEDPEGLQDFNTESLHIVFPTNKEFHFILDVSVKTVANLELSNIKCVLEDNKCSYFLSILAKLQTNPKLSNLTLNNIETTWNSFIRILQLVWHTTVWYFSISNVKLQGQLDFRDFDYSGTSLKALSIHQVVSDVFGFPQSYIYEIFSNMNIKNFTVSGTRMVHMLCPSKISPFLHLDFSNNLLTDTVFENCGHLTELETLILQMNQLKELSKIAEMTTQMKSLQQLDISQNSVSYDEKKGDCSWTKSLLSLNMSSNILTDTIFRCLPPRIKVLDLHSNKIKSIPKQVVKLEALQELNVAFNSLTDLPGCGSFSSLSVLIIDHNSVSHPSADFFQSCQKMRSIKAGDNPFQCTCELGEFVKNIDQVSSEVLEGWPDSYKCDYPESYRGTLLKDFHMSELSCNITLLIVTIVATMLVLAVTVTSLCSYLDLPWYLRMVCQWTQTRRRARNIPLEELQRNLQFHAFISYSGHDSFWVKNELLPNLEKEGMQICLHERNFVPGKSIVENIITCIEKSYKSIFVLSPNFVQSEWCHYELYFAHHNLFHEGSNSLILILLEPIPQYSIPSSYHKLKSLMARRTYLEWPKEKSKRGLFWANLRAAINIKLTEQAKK
Chain of TLR1/TLR2 (Homo sapiens, UniProt O60603+Q15399) (O60603 21-784): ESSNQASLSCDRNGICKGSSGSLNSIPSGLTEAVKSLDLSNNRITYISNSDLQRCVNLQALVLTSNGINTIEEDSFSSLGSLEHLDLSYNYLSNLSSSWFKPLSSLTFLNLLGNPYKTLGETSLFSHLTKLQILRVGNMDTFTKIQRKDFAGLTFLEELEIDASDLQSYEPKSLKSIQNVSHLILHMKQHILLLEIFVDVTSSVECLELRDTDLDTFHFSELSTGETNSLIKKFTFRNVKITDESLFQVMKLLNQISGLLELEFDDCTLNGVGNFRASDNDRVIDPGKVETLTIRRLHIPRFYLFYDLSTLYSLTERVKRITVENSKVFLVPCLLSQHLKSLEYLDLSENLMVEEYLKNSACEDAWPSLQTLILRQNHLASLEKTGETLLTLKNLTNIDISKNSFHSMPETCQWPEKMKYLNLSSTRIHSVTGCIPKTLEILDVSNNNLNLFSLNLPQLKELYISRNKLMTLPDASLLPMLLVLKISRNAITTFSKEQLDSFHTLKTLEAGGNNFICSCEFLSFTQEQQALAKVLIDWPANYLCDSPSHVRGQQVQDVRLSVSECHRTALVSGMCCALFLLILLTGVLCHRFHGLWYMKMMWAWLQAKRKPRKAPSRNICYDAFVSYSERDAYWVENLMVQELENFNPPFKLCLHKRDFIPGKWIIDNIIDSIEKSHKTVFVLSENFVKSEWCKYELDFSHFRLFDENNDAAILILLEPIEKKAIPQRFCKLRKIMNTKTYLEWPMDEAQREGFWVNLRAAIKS

[3] = read-out: EC50 (nM) (mouse): EC50 TNF-α release from mouse macrophages, Table 1
[4] = read-out: EC50 (nM) (THP-1): EC50 TNF-α release from human THP-1 cells, Table 1
[5] = read-out: EC50 (nM) (mouse): EC50 TNF-α release from mouse macrophages, Table 3
[6] = read-out: EC50 (nM) (THP-1): EC50 TNF-α release from human THP-1 cells, Table 3
[7] = read-out: EC50 (nM) (mouse): EC50 TNF-α release from mouse macrophages, Table 6
[8] = read-out: EC50 (nM) (THP-1): EC50 TNF-α release from human THP-1 cells, Table 6
[9] = read-out: EC50 (nM) (mouse): EC50 TNF-α release from mouse macrophages, Table 5
[10] = read-out: EC50 (nM) (THP-1): EC50 TNF-α release from human THP-1 cells, Table 5

Emax (TLR1/TLR2 [1]) [%] | EC50 (TLR1/TLR2 [1]; [3]) [nM] | Emax (TLR1/TLR2 [2]) [%] | EC50 (TLR1/TLR2 [2]; [4]) [nM] | EC50 (TLR1/TLR2 [1]; [5]) [nM] | EC50 (TLR1/TLR2 [2]; [6]) [nM] | SMILES | other results
150 | 60 | 120 | 1 |  |  | CNC(=O)CCCCCCCCCCCNC(=O)[C@@H]1CN(C(=O)c2ccc(C(=O)N3C[C@@H](C(=O)N[C@H]4C[C@@H]4c4ccccc4)[C@H](C(=O)N[C@H]4C[C@@H]4c4ccccc4)C3)cc2)C[C@H]1C(=O)N[C@H]1C[C@@H]1c1ccccc1 [Compound 13, (3S,4S)-1-(4-((3S,4S)-3,4-Bis(((1S,2R)-2-phenylcyclo-propyl)carbamoyl)pyrrolidine-1-carbonyl)-benzoyl)-N^3-(12-(methylamino)-12-oxododecyl)-N^4-((1S,2R)-2-phenyl-cyclopropyl)pyrrolidine-3,4-dicarboxamide] | 
120 |  | 100 |  | 3.7 | 0.21 | [N-]=[N+]=NCC(=O)OCCCCCCCCCCCCNC(=O)[C@@H]1CN(C(=O)c2ccc(C(=O)N3C[C@@H](C(=O)N[C@H]4C[C@@H]4c4ccccc4)[C@H](C(=O)N[C@H]4C[C@@H]4c4ccccc4)C3)cc2)C[C@H]1C(=O)N[C@H]1C[C@@H]1c1ccccc1 [Compound 34, 12-((3S,4S)-1-(4-((3S,4S)-3,4-Bis(((1S,2R)-2-phenylcyclopropyl)carbamoyl)pyrrolidine-1-carbonyl)-benzoyl)-4-(((1S,2R)-2-phenylcyclopropyl)carbamoyl)-pyrrolidine-3-carboxamido)dodecyl 2-azidoacetate] | 
 | 5 |  | 0.5 |  |  | O=C(NCCCCCCCCCCCCS)[C@@H]1CN(C(=O)c2ccc(C(=O)N3C[C@@H](C(=O)N[C@H]4C[C@@H]4c4ccccc4)[C@H](C(=O)N[C@H]4C[C@@H]4c4ccccc4)C3)cc2)C[C@H]1C(=O)N[C@H]1C[C@@H]1c1ccccc1 [Compound 21, (3S,4S)-1-(4-((3S,4S)-3,4-Bis(((1S,2R)-2-phenyl-cyclopropyl)carbamoyl)pyrrolidine-1-carbonyl)-benzoyl)-N^3-(12-mercaptododecyl)-N^4-((1S,2R)-2-phenyl-cyclo-propyl)pyrrolidine-3,4-dicarboxamide] | 
 | 1100 |  | 45 |  |  | COC(=O)CCCCCNC(=O)[C@@H]1CN(C(=O)c2ccc(C(=O)N3C[C@@H](C(=O)N[C@H]4C[C@@H]4c4ccccc4)[C@H](C(=O)N[C@H]4C[C@@H]4c4ccccc4)C3)cc2)C[C@H]1C(=O)N[C@H]1C[C@@H]1c1ccccc1 [Compound 6, Methyl 6-((3S,4S)-1-(4-((3S,4S)-3,4-bis(((1S,2R)-2-phenylcyclopropyl)carbamoyl)pyrrolidine-1-carbonyl)-benzoyl)-4-(((1S,2R)-2-phenylcyclopropyl)carbamoyl)-pyrrolidine-3-carboxamido)-hexanoate] | 
140 |  | 100 |  | 4.7 | 0.05 | CN(C)CC(=O)OCCCCCCCCCCCCNC(=O)[C@@H]1CN(C(=O)c2ccc(C(=O)N3C[C@@H](C(=O)N[C@H]4C[C@@H]4c4ccccc4)[C@H](C(=O)N[C@H]4C[C@@H]4c4ccccc4)C3)cc2)C[C@H]1C(=O)N[C@H]1C[C@@H]1c1ccccc1 [Compound 44, 12-((3S,4S)-1-(4-((3S,4S)-3,4-Bis(((1S,2R)-2-phenylcyclopropyl)carbamoyl)pyrrolidine-1-carbonyl)benzoyl)-4-(((1S,2R)-2-phenylcyclo-propyl)carbamoyl)pyrrolidine-3-carboxamido)-dodecyl 2-(dimethylamino)acetate] | EC50 (TLR1/TLR2 [1]): 0.7 to 5 nM; EC50 (TLR1/TLR2 [2]): 0.05 to 0.2 nM
300 |  | 100 |  | 3.4 | 0.27 | O=C(CNC(=O)OCC(Cl)(Cl)Cl)OCCCCCCCCCCCCNC(=O)[C@@H]1CN(C(=O)c2ccc(C(=O)N3C[C@@H](C(=O)N[C@H]4C[C@@H]4c4ccccc4)[C@H](C(=O)N[C@H]4C[C@@H]4c4ccccc4)C3)cc2)C[C@H]1C(=O)N[C@H]1C[C@@H]1c1ccccc1 [Compound 37, 12-((3S,4S)-1-(4-((3S,4S)-3,4-Bis(((1S,2R)-2-phenyl-cyclopropyl)carbamoyl)pyrrolidine-1-carbonyl)benzoyl)-4-(((1S,2R)-2-phenylcyclopropyl)carbamoyl)pyrrolidine-3-carboxamido)-dodecyl 2-(((2,2,2-trichloroethoxy)-carbonyl)amino)acetate] | 
180 | 1.3 | 120 | 0.04 |  |  | C#CCCCCCCCCCCCCNC(=O)[C@@H]1CN(C(=O)c2ccc(C(=O)N3C[C@@H](C(=O)N[C@H]4C[C@@H]4c4ccccc4)[C@H](C(=O)N[C@H]4C[C@@H]4c4ccccc4)C3)cc2)C[C@H]1C(=O)N[C@H]1C[C@@H]1c1ccccc1 [Compound 19, (3S,4S)-1-(4-((3S,4S)-3,4-Bis(((1S,2R)-2-phenylcyclo-propyl)carbamoyl)pyrrolidine-1-carbonyl)-benzoyl)-N^3-((1S,2R)-2-phenylcyclopropyl)-N^4-(tetradec-13-yn-1-yl)pyrrolidine-3,4-dicarboxamide] | 
230 |  | 110 |  | 0.85 | 0.25 | O=C(NCCCCCCCCCCCCOCc1ccc([N+](=O)[O-])cc1)[C@@H]1CN(C(=O)c2ccc(C(=O)N3C[C@@H](C(=O)N[C@H]4C[C@@H]4c4ccccc4)[C@H](C(=O)N[C@H]4C[C@@H]4c4ccccc4)C3)cc2)C[C@H]1C(=O)N[C@H]1C[C@@H]1c1ccccc1 [Compound 51, (3S,4S)-1-(4-((3S,4S)-3,4-Bis(((1S,2R)-2-phenylcyclo-propyl)carbamoyl)pyrrolidine-1-carbonyl)-benzoyl)-N^3-(12-((4-nitrobenzyl)oxy)dodecyl)-N^4-((1S,2R)-2-phenyl-cyclopropyl)pyrrolidine-3,4-dicarboxamide] | 
300 |  | 100 |  |  |  | Nc1ccc(C(=O)OCCCCCCCCCCCCNC(=O)[C@@H]2CN(C(=O)c3ccc(C(=O)N4C[C@@H](C(=O)N[C@H]5C[C@@H]5c5ccccc5)[C@H](C(=O)N[C@H]5C[C@@H]5c5ccccc5)C4)cc3)C[C@H]2C(=O)N[C@H]2C[C@@H]2c2ccccc2)cc1 [Compound 74, 12-((3S,4S)-1-(4-((3S,4S)-3,4-Bis(((1S,2R)-2-phenyl-cyclopropyl)carbamoyl)pyrrolidine-1-carbonyl)benzoyl)-4-(((1S,2R)-2-phenylcyclopropyl)carbamoyl)-pyrrolidine-3-carboxamido)-dodecyl 4-aminobenzoate] | EC50 (TLR1/TLR2 [1]; [7]): 0.67 nM; EC50 (TLR1/TLR2 [2]; [8]): 0.05 nM

SMILES | Emax (TLR1/TLR2 [1]) [%] | EC50 (TLR1/TLR2 [1]; [3]) [nM] | Emax (TLR1/TLR2 [2]) [%] | EC50 (TLR1/TLR2 [2]; [4]) [nM] | EC50 (TLR1/TLR2 [1]; [5]) [nM] | EC50 (TLR1/TLR2 [2]; [6]) [nM] | other results
CC(C)(C)OC(=O)Nc1ccc(C(=O)OCCCCCCCCCCCCNC(=O)[C@@H]2CN(C(=O)c3ccc(C(=O)N4C[C@@H](C(=O)N[C@H]5C[C@@H]5c5ccccc5)[C@H](C(=O)N[C@H]5C[C@@H]5c5ccccc5)C4)cc3)C[C@H]2C(=O)N[C@H]2C[C@@H]2c2ccccc2)cc1 [Compound 73, 12-((3S,4S)-1-(4-((3S,4S)-3,4-Bis(((1S,2R)-2-phenyl-cyclopropyl)carbamoyl)pyrrolidine-1-carbonyl)-benzoyl)-4-(((1S,2R)-2-phenylcyclopropyl)carbamoyl)-pyrrolidine-3-carboxamido)-dodecyl 4-((tert-butoxycarbonyl)amino)benzoate] | 540 |  | 90 |  |  |  | EC50 (TLR1/TLR2 [1]; [7]): 30 nM; EC50 (TLR1/TLR2 [2]; [8]): 0.57 nM
CC(C)(C)OC(=O)N[C@@H](COCc1ccccc1)C(=O)OCCCCCCCCCCCCNC(=O)[C@@H]1CN(C(=O)c2ccc(C(=O)N3C[C@@H](C(=O)N[C@H]4C[C@@H]4c4ccccc4)[C@H](C(=O)N[C@H]4C[C@@H]4c4ccccc4)C3)cc2)C[C@H]1C(=O)N[C@H]1C[C@@H]1c1ccccc1 [Compound 64, (S)-12-((3S,4S)-1-(4-((3S,4S)-3,4-Bis(((1S,2R)-2-phenylcyclopropyl)carbamoyl)pyrrolidine-1-carbonyl)-benzoyl)-4-(((1S,2R)-2-phenylcyclopropyl)carbamoyl)-pyrrolidine-3-carboxamido)dodecyl 3-(benzyloxy)-2-((tert-butoxycarbonyl)amino)propanoate] | 370 |  | 100 |  |  |  | EC50 (TLR1/TLR2 [1]; [9]): 30 nM; EC50 (TLR1/TLR2 [2]; [10]): 0.15 nM
CC(C)(C)OCC(=O)OCCCCCCCCCCCCNC(=O)[C@@H]1CN(C(=O)c2ccc(C(=O)N3C[C@@H](C(=O)N[C@H]4C[C@@H]4c4ccccc4)[C@H](C(=O)N[C@H]4C[C@@H]4c4ccccc4)C3)cc2)C[C@H]1C(=O)N[C@H]1C[C@@H]1c1ccccc1 [Compound 47, 12-((3S,4S)-1-(4-((3S,4S)-3,4-Bis(((1S,2R)-2-phenylcyclopropyl)carbamoyl)pyrrolidine-1-carbonyl)benzoyl)-4-(((1S,2R)-2-phenylcyclopropyl)-carbamoyl)pyrrolidine-3-carboxamido)dodecyl 2-(tert-butoxy)acetate] | 230 |  | 100 |  | 5 | 0.65 | 
CC(C)(C)OC(=O)N[C@@H](CCC(=O)OCc1ccccc1)C(=O)OCCCCCCCCCCCCNC(=O)[C@@H]1CN(C(=O)c2ccc(C(=O)N3C[C@@H](C(=O)N[C@H]4C[C@@H]4c4ccccc4)[C@H](C(=O)N[C@H]4C[C@@H]4c4ccccc4)C3)cc2)C[C@H]1C(=O)N[C@H]1C[C@@H]1c1ccccc1 [Compound 66, (S)-5-Benzyl 1-(12-((3S,4S)-1-(4-((3S,4S)-3,4-bis-(((1S,2R)-2-phenylcyclopropyl)carbamoyl)-pyrrolidine-1-carbonyl)-benzoyl)-4-(((1S,2R)-2-phenylcyclopropyl)-carbamoyl)pyrrolidine-3-carboxamido)dodecyl) 2-((tert-butoxycarbonyl)-amino)pentanedioate] | 210 |  | 100 |  |  |  | EC50 (TLR1/TLR2 [1]; [9]): 450 nM; EC50 (TLR1/TLR2 [2]; [10]): 39 nM
